From publication PMC4257840 (Journal of Medicinal Chemistry, 2014) come the findings set out here.

As a reminder, the inhibition is the change of the read-out against control, counted positive when it falls. The pIC50 is the IC50 on a negative log10 scale, so that one unit is a factor of ten.

pIC50: −log10 of the molar value.

Holding throughout (format): biochemical
Assay [1] deals with T1, Human recombinant MMP-3 (Homo sapiens, UniProt P08254).
T1 construct: host or cells: E. coli
The experiment in a line: Protease counter-screening: MMP-3. How it is done:
(§1) Appendix 7. Protease Counter -Screening
(§2) Protease counter-screeni ng was performed using the methods described below. Initial screening was conducted in duplicate using a single test substance concentration of 10 µ M .
(§3) Additional assays were conducted in replicate for selected pairin gs of test s ubstance and enz yme in order to enable the determination of IC50 values using conventional procedures.
(§4) Determination of K i was made using the Batch K i program (Biokin Ltd, Pullman, WA) to derive values from the Morrison equation: […]
(§5) Where [E ] is the active enz yme concentration, Kiapp is the apparent inhibition const ant, v 0 is the control velocit y in the absence of inhibitors, vb is the background velocity, v is the initial reaction velocit y in the presence of inhibitor, and I is the inhibitor concentration.Thence:
Where [S ] is the substrate concentration and KM is the Michealis constant. […]
Test compound or vehicle was pre- incubated with 600 […]
The reaction was […]
initiated by addition of 1 µM N-CH3-SO2-D-FGR-pNA for another 120 min incubation period. […]
Matrix metalloprotease-3 (MMP-3 ): Human recombinant MMP-3 proenz yme expressed in E. coli was activated with 4-aminophen yl mercuric acetate (APMA) for 60 min at 37 °C. […] The amount of MCA-PLG formed was read spectrofluorimetricall y at 340 nm/400 nm.

In assay [2] the target is human recombinant procathepsin K (activated) (Homo sapiens, UniProt P43235). The assay is described as follows: Protease counter-screening: Cathepsin K. How it is done: as §1, §2, §3, §4, §5
(§6) Where [S ] is the substrate concentration and KM is the Michealis constant.
Caspase 1: Activity against human recombinant caspase 1 expressed in E. coli was tested using Ac-YVAD- AMC as the substrate. […]
(§7) The amount of MCA-P LG formed was measured spectrofluorimetricall y at 340 nm/400 nm. […]
AMC formation was read at 360 nm/465 nm.
Cathepsin L2: Human recombinant cathepsin L2 expressed in NS0 cells was used as the enzyme source. […] Form ation of AMC was measured at 360 […]
The amount of AMC formed was read spectrofluorimetricall y at 360 nm/465 nm. […]

Assay [3] has as its target recombinant human Cat S (Homo sapiens, UniProt P25774). The assay is described as follows: Cathepsin S inhibition assay. Particulars: Table S1 counter-screening; read-out: Cathepsin S IC50. Background: The purpose of a counterscreen is to sort out artefacts and off-target activity.
Description: In all cases, for reactions involving inhibitors, the amount of reaction buffer was adjusted to 60 μL, the inhibitor added as a 10 μL aliquot, and incubated for 20 min with the enzyme prior to reaction start.
Assay [4] concerns the target T2, Cathepsin D (Homo sapiens, UniProt P07339).
T2 construct: purified from human li ver; from tissue; host or cells: human liver
The assay is described as follows: Protease counter-screening: Cathepsin D. How it is done:
as §1, §2, §3, §4, §5, §6
Caspase 1: Activity against human recombinant caspase 1 expressed in E. coli was tested using Ac-YVAD- AMC as the substrate. Test compound or vehicle was pre- incubated with 600 […]
Cathep sin D: Tests were performed using enz ym e purified from human li ver. Test compound or vehicle was pre- incubated with 190 mU/mL enz yme in modified acetate buffer pH 4.0 for 15 min at 37 °C. […]
as §7

T2 sequence (P07339 65-412): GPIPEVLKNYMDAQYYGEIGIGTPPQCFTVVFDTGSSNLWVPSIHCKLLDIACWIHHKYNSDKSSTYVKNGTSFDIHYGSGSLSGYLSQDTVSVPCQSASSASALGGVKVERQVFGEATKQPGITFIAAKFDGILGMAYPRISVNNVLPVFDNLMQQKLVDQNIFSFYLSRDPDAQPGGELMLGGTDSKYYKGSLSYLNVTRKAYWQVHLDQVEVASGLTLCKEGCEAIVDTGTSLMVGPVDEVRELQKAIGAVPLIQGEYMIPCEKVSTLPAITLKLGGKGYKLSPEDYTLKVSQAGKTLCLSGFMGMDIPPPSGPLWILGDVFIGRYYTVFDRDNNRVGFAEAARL
Sequence of human recombinant procathepsin K (activated) (P43235 115-329): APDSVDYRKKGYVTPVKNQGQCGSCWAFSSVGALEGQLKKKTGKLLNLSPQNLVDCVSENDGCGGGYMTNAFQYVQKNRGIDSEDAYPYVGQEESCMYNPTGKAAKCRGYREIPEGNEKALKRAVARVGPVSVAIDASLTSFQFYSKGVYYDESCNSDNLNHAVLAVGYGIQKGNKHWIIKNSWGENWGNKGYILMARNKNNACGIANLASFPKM
T1 sequence (P08254 100-477): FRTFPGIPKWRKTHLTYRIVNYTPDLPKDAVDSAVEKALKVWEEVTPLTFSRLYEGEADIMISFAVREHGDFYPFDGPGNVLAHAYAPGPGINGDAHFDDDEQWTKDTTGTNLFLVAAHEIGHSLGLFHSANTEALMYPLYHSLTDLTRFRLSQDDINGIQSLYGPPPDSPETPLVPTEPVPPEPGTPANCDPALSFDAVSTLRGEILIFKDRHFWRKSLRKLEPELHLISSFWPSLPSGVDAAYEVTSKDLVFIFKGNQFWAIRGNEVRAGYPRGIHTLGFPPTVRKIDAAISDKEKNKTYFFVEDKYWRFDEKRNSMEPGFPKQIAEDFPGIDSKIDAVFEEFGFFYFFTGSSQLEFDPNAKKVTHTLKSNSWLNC
Sequence of recombinant human Cat S (P25774 115-331): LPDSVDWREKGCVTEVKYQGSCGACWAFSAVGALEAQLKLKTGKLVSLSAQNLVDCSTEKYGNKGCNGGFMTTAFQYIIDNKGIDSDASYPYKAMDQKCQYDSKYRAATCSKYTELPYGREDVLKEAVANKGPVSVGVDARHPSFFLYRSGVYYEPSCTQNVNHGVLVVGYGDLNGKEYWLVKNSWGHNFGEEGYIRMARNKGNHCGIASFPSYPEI

Turning to `CC(C)[C@H](NC(=O)[C@H](C)NC(=O)[C@@H](NC(=O)c1ccccc1)C(C)(C)C)C(=O)C(=O)NCc1ccccc1` [Compound 38, N-{(S)-1-[(S)-1-((S)-1-Benzylaminooxalyl-2-methyl-propylcarbamoyl)-ethylcarbamoyl]-2,2-dimethyl-propyl}-benzamide], the figures for the inhibition at 10 µM in assay [1] and in assay [4] were 0% and 2%, respectively. The results for the pIC50 in assay [2] and in assay [3] were 5.53 and 6.77, respectively.
